Results as given in ChEMBL document CHEMBL1681718, “Hepatitis C NS5B polymerase inhibitors: functional equivalents for the benzothiadiazine moiety” (Bioorg Med Chem Lett, 2011).

What was measured:
[1] = Inhibition of HCV 1a H77 NS5B polymerase after 3 hrs by [3H]UTP incorporation assay; parameters: species or system Hepatitis C virus (isolate H77)
[2] = system: Hepatitis C virus; assay: Antiviral activity against HCV 1a isolate H77 infected in EN5-3 cells by SEAP reporter gene assay; format: functional, organism-based, Hepacivirus hominis; settings: genotype 1a H77, EN5-3
[3] = Inhibition of HCV 1b BK NS5B polymerase after 3 hrs by [3H]UTP incorporation assay; parameters: species or system Hepatitis C virus (isolate BK)
[4] = system: Hepatitis C virus; assay: Antiviral activity against HCV 1b N infected in EN5-3 cells by SEAP reporter gene assay; format: functional, organism-based, Hepacivirus hominis; settings: genotype 1b strain N

Row | SMILES | IC50 [1] [nM] | EC50 [2] [nM] | IC50 [3] [nM] | EC50 [4] [nM]
1 | CC(C)(C)CC[C@@]1(C)C(=O)/C(=C2/C=Cc3cc(NS(C)(=O)=O)ccc3N2)C(=O)c2ccccc21 | 17 | 82 | 29 | 22
2 | CC1=C/C(=C2\C(=O)c3ccccc3[C@@](C)(CCC(C)(C)C)C2=O)Nc2ccc(NS(C)(=O)=O)cc21 | 32 | 135 | 52 | 20
3 | CC(C)CCC1=C/C(=C2\C(=O)c3ccccc3[C@@](C)(CCC(C)(C)C)C2=O)Nc2ccc(NS(C)(=O)=O)cc21 | 4300 |  | 1020 | 
4 | CCOC(=O)C1=C/C(=C2\C(=O)c3ccccc3[C@@](C)(CCC(C)(C)C)C2=O)Nc2ccc(NS(C)(=O)=O)cc21 | 315 | 3080 | 739 | 660
5 | CC(C)(C)CC[C@@]1(C)C(=O)/C(=C2/C=C(CO)c3cc(NS(C)(=O)=O)ccc3N2)C(=O)c2ccccc21 | 12 | 781 | 56 | 50
6 | CC(C)(C)CC[C@@]1(C)C(=O)/C(=C2/C=C(C=O)c3cc(NS(C)(=O)=O)ccc3N2)C(=O)c2ccccc21 | 15 | 1200 | 25 | 168
7 | CC(C)(C)CC[C@@]1(C)C(=O)C(C2=NS(=O)(=O)c3cc(NS(C)(=O)=O)ccc3N2)=C(O)c2ccccc21 | 4 | 4 | 7 | 2

The remaining lines, values ahead:

Row | IC50 [1] [nM] | EC50 [2] [nM] | IC50 [3] [nM] | EC50 [4] [nM] | SMILES
8 | 1680 |  | 5550 |  | CC(C)(C)CC[C@@]1(C)C(=O)/C(=C2/C=Cc3ccccc3N2)C(=O)c2ccccc21
9 | 72 | 932 | 238 | 99 | CN(C)C(=O)C1=C/C(=C2\C(=O)c3ccccc3[C@@](C)(CCC(C)(C)C)C2=O)Nc2ccc(NS(C)(=O)=O)cc21
10 | 133 | 1040 | 333 | 245 | CNC(=O)C1=C/C(=C2\C(=O)c3ccccc3[C@@](C)(CCC(C)(C)C)C2=O)Nc2ccc(NS(C)(=O)=O)cc21
11 | 3 | 3320 | 5 | 221 | CC(C)(C)CC[C@@]1(C)C(=O)/C(=C2/C=C(C(=O)O)c3cc(NS(C)(=O)=O)ccc3N2)C(=O)c2ccccc21
12 | 830 |  | 4200 |  | CC(C)(C)CC[C@@]1(C)C(=O)C(C2=NCc3cc(NS(C)(=O)=O)ccc3N2)=C(O)c2ccccc21
